Test: xn = mol fraction of the nth substance listed
Conditions: 100 kPa, Liquid; for viscosity: Concentric cylinders viscometry; for mass density: Vibrating tube method

CCOC(=O)CCC(=O)OCC [diethyl butanedioate] + CC(C)CCO
Conditions	mass density [kg/m3]	viscosity [mPa·s]
288.15 K, x1 = 0.1	845.17	3.582
288.15 K, x1 = 0.2	875.25	3.029
288.15 K, x1 = 0.3	902.72	2.76
288.15 K, x1 = 0.3999	927.82	2.625
288.15 K, x1 = 0.5	951.1	2.58
288.15 K, x1 = 0.5999	972.64	2.6
288.15 K, x1 = 0.7	992.67	2.667
288.15 K, x1 = 0.7999	1011.24	2.808
288.15 K, x1 = 0.9002	1028.55	2.943
288.15 K, x1 = 1	1044.83	3.195
293.15 K, x1 = 0.1	841.19	3.097
293.15 K, x1 = 0.2	871.04	2.621
293.15 K, x1 = 0.3	898.32	2.396
293.15 K, x1 = 0.3999	923.26	2.283
293.15 K, x1 = 0.5	946.4	2.25
293.15 K, x1 = 0.5999	967.82	2.271
293.15 K, x1 = 0.7	987.73	2.332
293.15 K, x1 = 0.7999	1006.2	2.455
293.15 K, x1 = 0.9002	1023.43	2.573
293.15 K, x1 = 1	1039.63	2.807
298.15 K, x1 = 0.1	837.19	2.712
298.15 K, x1 = 0.2	866.82	2.321
298.15 K, x1 = 0.3	893.91	2.139
298.15 K, x1 = 0.3999	918.7	2.053
298.15 K, x1 = 0.5	941.69	2.025
298.15 K, x1 = 0.5999	962.98	2.048
298.15 K, x1 = 0.7	982.79	2.103
298.15 K, x1 = 0.7999	1001.17	2.207
298.15 K, x1 = 0.9002	1018.32	2.308
298.15 K, x1 = 1	1034.44	2.491
303.15 K, x1 = 0.1	833.18	2.377
303.15 K, x1 = 0.2	862.59	2.056
303.15 K, x1 = 0.3	889.5	1.905
303.15 K, x1 = 0.3999	914.12	1.834
303.15 K, x1 = 0.5	936.98	1.817
303.15 K, x1 = 0.5999	958.15	1.838
303.15 K, x1 = 0.7	977.86	1.889
303.15 K, x1 = 0.7999	996.14	1.981
303.15 K, x1 = 0.9002	1013.2	2.069
303.15 K, x1 = 1	1029.25	2.229
308.15 K, x1 = 0.1	829.15	2.096
308.15 K, x1 = 0.2	858.35	1.831
308.15 K, x1 = 0.3	885.07	1.707
308.15 K, x1 = 0.3999	909.54	1.65
308.15 K, x1 = 0.5	932.26	1.638
308.15 K, x1 = 0.5999	953.31	1.661
308.15 K, x1 = 0.7	972.91	1.707
308.15 K, x1 = 0.7999	991.1	1.789
308.15 K, x1 = 0.9002	1008.09	1.868
308.15 K, x1 = 1	1024.08	2.008
313.15 K, x1 = 0.1	825.09	1.867
313.15 K, x1 = 0.2	854.08	1.649
313.15 K, x1 = 0.3	880.62	1.547
313.15 K, x1 = 0.3999	904.94	1.502
313.15 K, x1 = 0.5	927.52	1.496
313.15 K, x1 = 0.5999	948.47	1.518
313.15 K, x1 = 0.7	967.97	1.562
313.15 K, x1 = 0.7999	986.08	1.635
313.15 K, x1 = 0.9002	1002.99	1.706
313.15 K, x1 = 1	1018.9	1.821
318.15 K, x1 = 0.1	821.01	1.656
318.15 K, x1 = 0.2	849.79	1.475
318.15 K, x1 = 0.3	876.16	1.391
318.15 K, x1 = 0.3999	900.33	1.356
318.15 K, x1 = 0.5	922.78	1.354
318.15 K, x1 = 0.5999	943.61	1.377
318.15 K, x1 = 0.7	963.02	1.419
318.15 K, x1 = 0.7999	981.04	1.485
318.15 K, x1 = 0.9002	997.88	1.549
318.15 K, x1 = 1	1013.72	1.66
323.15 K, x1 = 0.1	816.9	1.496
323.15 K, x1 = 0.2	845.48	1.346
323.15 K, x1 = 0.3	871.68	1.271
323.15 K, x1 = 0.3999	895.7	1.247
323.15 K, x1 = 0.5	918.03	1.243
323.15 K, x1 = 0.5999	938.75	1.27
323.15 K, x1 = 0.7	958.06	1.308
323.15 K, x1 = 0.7999	975.99	1.369
323.15 K, x1 = 0.9002	992.76	1.428
323.15 K, x1 = 1	1008.55	1.523

Source: the NIST ThermoML archive (doi:10.1016/j.jct.2016.09.030)
